In patent US20180186814A1, “TRICYCLIC COMPOUND HAVING SULFINYL OR SULFONYL” (Shionogi & Co., Ltd., priority 2015, published 2018):
Values after ≈ are worked out from the molar mass of the structure shown.

Key:
Format in all cases: cell-based
E. cloacae SR36276 = assay: MIC by microbroth dilution (CLSI), strain No. 5; details: E. cloacae SR36276, AmpC, highly AmpC-producing strain, ceftazidime-resistant, cefepime-sensitive, cation-adjusted Mueller-Hinton broth; for MIC: Enterobacter cloacae, read-out: minimum inhibitory concentration (MIC), Strain No. 5
Method: (§1) The minimum inhibitory concentration (MIC) was measured by the microbroth dilution method in accordance with the procedures recommended by CLSI (Clinical and Laboratory Standards Institute) using 1×10^5 CFU/mL as an inoculum dose and a cation-adjusted Mueller-Hinton broth as a test medium.
(§2) The strains used are as described in the table below.

E. cloacae ATCC13047 = assay: MIC by microbroth dilution (CLSI), strain No. 1; details: E. cloacae ATCC13047, AmpC, ceftazidime-resistant, cefepime-sensitive, cation-adjusted Mueller-Hinton broth; for MIC: Enterobacter cloacae, read-out: minimum inhibitory concentration (MIC), Strain No. 1
Method: as §1, §2

K. pneumoniae NCTC13443 = assay: MIC by microbroth dilution (CLSI), strain No. 4; details: K. pneumoniae NCTC13443, NDM-1, MBL-producing strain, carbapenem-resistant, cation-adjusted Mueller-Hinton broth; for MIC: Klebsiella pneumoniae, read-out: minimum inhibitory concentration (MIC), Strain No. 4
Method: as §1, §2

K. pneumoniae SR01358 = assay: MIC by microbroth dilution (CLSI), strain No. 2; details: Klebsiella pneumoniae; K. pneumoniae SR01358, KPC-2; KPC-producing strain; cation-adjusted Mueller-Hinton broth; read-out: minimum inhibitory concentration (MIC), Strain No. 2
Method: as §1, §2

K. pneumoniae SR01453 = assay: MIC by microbroth dilution (CLSI), strain No. 3; details: K. pneumoniae SR01453, NDM-1, MBL-producing strain, carbapenem-resistant, cation-adjusted Mueller-Hinton broth; for MIC: Klebsiella pneumoniae, read-out: minimum inhibitory concentration (MIC), Strain No. 3
Method: as §1, §2

E. coli SR09613 = assay: MIC by microbroth dilution (CLSI), strain No. 6; details: for MIC: Escherichia coli, SR09613, read-out: minimum inhibitory concentration (MIC), Strain No. 6
Method: as §1, §2

E. coli SR09616 = assay: MIC by microbroth dilution (CLSI), strain No. 7; details: for MIC: Escherichia coli, SR09616, read-out: minimum inhibitory concentration (MIC), Strain No. 7
Method: as §1, §2

Structure (SMILES)	MIC (E. cloacae SR36276)	MIC (E. cloacae ATCC13047)	MIC (K. pneumoniae NCTC13443)	MIC (K. pneumoniae SR01358)	MIC (K. pneumoniae SR01453)	MIC (E. coli SR09613)	MIC (E. coli SR09616)	minimum inhibitory concentration (MIC), Strain No. 5 (E. cloacae SR36276)	minimum inhibitory concentration (MIC), Strain No. 1 (E. cloacae ATCC13047)	minimum inhibitory concentration (MIC), Strain No. 4 (K. pneumoniae NCTC13443)	minimum inhibitory concentration (MIC), Strain No. 6 (E. coli SR09613; E. coli SR09613, CMY-2 type, plasmid AmpC-producing strain, ceftazidime-resistant, cefepime-sensitive, cation-adjusted Mueller-Hinton broth)	minimum inhibitory concentration (MIC), Strain No. 3 (K. pneumoniae SR01453)	minimum inhibitory concentration (MIC), Strain No. 7 (E. coli SR09616; E. coli SR09616, CMY-2 type, plasmid AmpC-producing strain, ceftazidime-resistant, cefepime-sensitive, cation-adjusted Mueller-Hinton broth)
Nc1nc(/C(=N/OCC(=O)O)C(=O)N[C@@H]2C(=O)N3[C@@H]2[S@@+]([O-])C[C@@H]2CC(=O)O[C@@]23C(=O)O)cs1 [Compound I-001]	0.063 µg/mL (≈ 0.126 µM)	0.125 µg/mL (≈ 0.249 µM)	1 µg/mL (≈ 1.99 µM)	0.25 µg/mL (≈ 0.499 µM)	0.063 µg/mL (≈ 0.126 µM)	–	–	–	–	–	–	–	–
NC(=O)NCCO/N=C(\C(=O)N[C@@H]1C(=O)N2[C@@H]1[S@@+]([O-])C[C@@H]1CC(=O)O[C@@]12C(=O)O)c1csc(N)n1 [Compound I-056]	2 µg/mL (≈ 3.78 µM)	0.5 µg/mL (≈ 0.944 µM)	–	–	0.5 µg/mL (≈ 0.944 µM)	0.5 µg/mL (≈ 0.944 µM)	2 µg/mL (≈ 3.78 µM)	–	–	–	–	–	–
NCCO/N=C(\C(=O)N[C@@H]1C(=O)N2[C@@H]1[S@@+]([O-])C[C@@H]1CC(=O)O[C@@]12C(=O)O)c1csc(N)n1 [Compound I-072]	–	–	–	–	–	4 µg/mL (≈ 8.22 µM)	4 µg/mL (≈ 8.22 µM)	–	–	–	–	–	–
C[n+]1ccc(CO/N=C(\C(=O)N[C@@H]2C(=O)N3[C@@H]2[S@@+]([O-])C[C@@H]2CC(=O)O[C@@]23C(=O)[O-])c2csc(N)n2)cc1 [Compound I-041]	–	1 µg/mL (≈ 1.82 µM)	–	–	0.5 µg/mL (≈ 0.911 µM)	0.5 µg/mL (≈ 0.911 µM)	2 µg/mL (≈ 3.65 µM)	–	–	–	–	–	–
Nc1nc(/C(=N/OC(F)C(=O)O)C(=O)N[C@@H]2C(=O)N3[C@@H]2[S@@+]([O-])C[C@@H]2CC(=O)O[C@@]23C(=O)O)cs1 (stereo partly shown) [Compound I-037]	0.5 µg/mL (≈ 0.963 µM)	0.5 µg/mL (≈ 0.963 µM)	8 µg/mL (≈ 15.4 µM)	1 µg/mL (≈ 1.93 µM)	0.25 µg/mL (≈ 0.481 µM)	–	–	–	–	–	–	–	–
Nc1nc(/C(=N/OCC(=O)NO)C(=O)N[C@@H]2C(=O)N3[C@@H]2[S+](O)C[C@@H]2CC(=O)O[C@@]23C(=O)O)cs1 (stereo partly shown) [Compound I-049]	–	–	–	–	–	–	–	0.5 µg/mL	0.125 µg/mL	2 µg/mL	0.063 µg/mL	0.063 µg/mL	0.5 µg/mL
CO/N=C(\C(=O)N[C@@H]1C(=O)N2[C@@H]1S(=O)(=O)C[C@@H]1CC(=O)O[C@@]12C(=O)[O-])c1csc(N)n1.[Na+] [Compound I-070]	4 µg/mL	1 µg/mL	4 µg/mL	1 µg/mL	0.25 µg/mL	–	–	–	–	–	–	–	–
N#CCO/N=C(\C(=O)N[C@@H]1C(=O)N2[C@@H]1[S@@+]([O-])C[C@@H]1CC(=O)O[C@@]12C(=O)O)c1csc(N)n1 [Compound I-039]	2 µg/mL (≈ 4.15 µM)	0.5 µg/mL (≈ 1.04 µM)	4 µg/mL (≈ 8.29 µM)	–	0.125 µg/mL (≈ 0.259 µM)	0.25 µg/mL (≈ 0.518 µM)	1 µg/mL (≈ 2.07 µM)	–	–	–	–	–	–
Nc1nc(/C(=N/OCCO)C(=O)N[C@@H]2C(=O)N3[C@@H]2[S@@+]([O-])C[C@@H]2CC(=O)O[C@@]23C(=O)[O-])cs1.[Na+] [Compound I-059]	0.25 µg/mL	0.063 µg/mL	1 µg/mL	0.5 µg/mL	0.063 µg/mL	–	–	–	–	–	–	–	–
C[C@H](O/N=C(\C(=O)N[C@@H]1C(=O)N2[C@@H]1[S@@+]([O-])C[C@@H]1CC(=O)O[C@@]12C(=O)O)c1csc(N)n1)C(=O)O [Compound I-005]	0.125 µg/mL (≈ 0.242 µM)	0.5 µg/mL (≈ 0.97 µM)	1 µg/mL (≈ 1.94 µM)	0.5 µg/mL (≈ 0.97 µM)	0.125 µg/mL (≈ 0.242 µM)	–	–	–	–	–	–	–	–
Nc1nc(/C(=N/O[C@H](CO)C(=O)O)C(=O)N[C@@H]2C(=O)N3[C@@H]2[S@@+]([O-])C[C@@H]2CC(=O)O[C@@]23C(=O)O)cs1 [Compound I-026]	0.125 µg/mL (≈ 0.235 µM)	0.125 µg/mL (≈ 0.235 µM)	1 µg/mL (≈ 1.88 µM)	0.5 µg/mL (≈ 0.941 µM)	0.125 µg/mL (≈ 0.235 µM)	–	–	–	–	–	–	–	–
Nc1nc(/C(=N/OCC(=O)O)C(=O)N[C@@H]2C(=O)N3[C@@H]2S(=O)(=O)C[C@@H]2CC(=O)O[C@@]23C(=O)O)cs1 [Compound I-003]	1 µg/mL (≈ 1.93 µM)	0.25 µg/mL (≈ 0.483 µM)	4 µg/mL (≈ 7.73 µM)	0.5 µg/mL (≈ 0.966 µM)	0.25 µg/mL (≈ 0.483 µM)	–	–	–	–	–	–	–	–
